Test results: paper PMC12718135, “Non-catalytic UBL2 domain directs deubiquitinase USP11 toward K48-linked polyubiquitin chains” (The Journal of Biological Chemistry, 2025)

Key:
[1] = molecular target: T1, USP11-D1D2 (Homo sapiens, UniProt P51784); assay: SDS-gel deubiquitination of K63-polyubiquitinated Rsp5 (fluorescein-Ub); type: biochemical; settings: 1 μM enzyme, 25 mM Tris pH 7.5, 200 mM NaCl, 3 mM βME
T1 construct: catalytic core only: D1 and D2 segments joined by five residues (ASTSK), UBL2-IDR insert, DUSP and UBL1 removed; E. coli BL21 RIL, N-terminal His6 tag cut with TEV
T1 sequence (P51784 286-490 limits assumed): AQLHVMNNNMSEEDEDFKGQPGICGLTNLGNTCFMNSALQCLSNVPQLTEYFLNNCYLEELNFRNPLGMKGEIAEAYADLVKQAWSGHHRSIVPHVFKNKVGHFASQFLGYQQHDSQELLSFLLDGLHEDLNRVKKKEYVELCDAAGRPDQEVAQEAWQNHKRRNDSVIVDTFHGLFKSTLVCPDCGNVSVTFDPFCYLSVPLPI
T1 sequence (P51784 735-930 limits assumed): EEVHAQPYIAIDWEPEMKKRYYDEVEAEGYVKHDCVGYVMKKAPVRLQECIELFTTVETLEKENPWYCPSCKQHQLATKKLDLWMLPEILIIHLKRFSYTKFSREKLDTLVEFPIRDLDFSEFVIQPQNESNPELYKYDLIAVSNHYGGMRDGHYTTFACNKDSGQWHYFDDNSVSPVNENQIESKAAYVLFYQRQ

[2] = molecular target: T2, USP11ΔDUSP (Homo sapiens, UniProt P51784); assay: SDS-gel deubiquitination of K48- and K63-polyubiquitinated Rsp5; type: biochemical; settings: K48- and K63-linked poly-ubiquitinated Rsp5 substrates
T2 construct: gene USP11; N-terminal DUSP domain removed; keeps UBL1, D1, UBL2-IDR, D2
T2 sequence (P51784 185-963 limits assumed, stated change not applied): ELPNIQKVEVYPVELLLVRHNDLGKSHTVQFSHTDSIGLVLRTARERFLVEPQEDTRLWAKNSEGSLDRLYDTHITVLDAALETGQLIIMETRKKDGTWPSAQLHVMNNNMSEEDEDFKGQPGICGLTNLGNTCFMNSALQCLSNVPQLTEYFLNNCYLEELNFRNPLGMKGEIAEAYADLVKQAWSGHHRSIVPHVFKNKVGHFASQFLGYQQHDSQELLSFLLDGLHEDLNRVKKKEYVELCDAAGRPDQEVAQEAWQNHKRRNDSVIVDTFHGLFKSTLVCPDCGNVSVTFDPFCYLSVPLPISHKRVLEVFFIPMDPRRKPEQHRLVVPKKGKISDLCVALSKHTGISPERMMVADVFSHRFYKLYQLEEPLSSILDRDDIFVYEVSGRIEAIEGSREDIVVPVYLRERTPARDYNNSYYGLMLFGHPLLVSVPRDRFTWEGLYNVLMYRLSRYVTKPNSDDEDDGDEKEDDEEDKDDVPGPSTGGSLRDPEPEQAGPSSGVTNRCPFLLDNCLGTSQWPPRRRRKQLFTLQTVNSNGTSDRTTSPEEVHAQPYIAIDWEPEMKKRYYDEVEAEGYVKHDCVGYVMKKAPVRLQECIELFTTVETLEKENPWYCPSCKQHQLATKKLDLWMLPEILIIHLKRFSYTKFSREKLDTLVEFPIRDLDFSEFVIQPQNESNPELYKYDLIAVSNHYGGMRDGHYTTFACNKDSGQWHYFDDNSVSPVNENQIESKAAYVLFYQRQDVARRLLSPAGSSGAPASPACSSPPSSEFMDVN

Row | SMILES | IC50 [1] [µM] | IC50 ([1]; value printed collectively for the analogs) [µM] | SDS-gel deubiquitination of K48- and K63-polyubiquitinated Rsp5 [2]
1 | Oc1ccc(C2CNCCc3c2cc(O)c(O)c3Cl)cc1 (centres unmarked) [Fenoldopam] | ~30 |  | Fenoldopam and Olanzapine effectively disrupted the ability of USP11ΔDUSP to process both K48 and K63-linked
2 | Cc1cc2c(s1)Nc1ccccc1N=C2N1CCN(C)CC1 [Olanzapine] |  |  | Fenoldopam and Olanzapine effectively disrupted the ability of USP11ΔDUSP to process both K48 and K63-linked

Second part, led by results:

Row | IC50 [1] [µM] | IC50 ([1]; value printed collectively for the analogs) [µM] | SMILES | SDS-gel deubiquitination of K48- and K63-polyubiquitinated Rsp5 [2]
3 |  | ~30 | Oc1ccc(C2CNCCc3c2cc(O)c(O)c3Cl)cc1 (centres unmarked) [SRF-01] | SRF-01, SRF-02, SRF-03, and SRO-01 also inhibited the activity of USP11ΔDUSP
4 | ~30 |  | Oc1cc2c(cc1O)C(c1ccccc1)CNCC2 (centres unmarked) [SRF-02] | SRF-01, SRF-02, SRF-03, and SRO-01 also inhibited the activity of USP11ΔDUSP
5 | ~30 |  | CN1CCc2cc(Cl)c(O)cc2[C@@H](c2ccccc2)C1 [SRF-03] | SRF-01, SRF-02, SRF-03, and SRO-01 also inhibited the activity of USP11ΔDUSP
6 | ~30 |  | Cc1cc2c(s1)Nc1ccccc1N=C2N1CC[N+](C)([O-])CC1 [SRO-01] | SRF-01, SRF-02, SRF-03, and SRO-01 also inhibited the activity of USP11ΔDUSP
